This is an account of results in patent publication US20240376148A1, “MEDICAMENT FOR INHIBITING DIETARY OBESITY AND POLYPEPTIDE USED THEREFOR” (INSTITUTE OF ZOOLOGY, CHINESE ACADEMY OF SCIENCES, priority 2022, published 2024).

Assay [1] has as its system A. muciniphila. The assay can be described thus: qPCR of relative abundance of A. muciniphila in intestinal flora of SPF mice. Type of assay: in vivo. As to conditions: p<0.05. How it is done:
In order to verify the changes in the relative abundance of A.muciniphila in the intestinal flora of mice fed with other HD, qPCR experiments were performed on the changes of intestinal flora in mice. Faecal bacterial DNA was extracted from the faeces of mice in the NC, HFD, D1, D2, D3, D5, D7, D8, D9 and D10 groups collected in the pre-SPF mice experiments and then the relative abundance of A. muciniphila was determined using qPCR.
(In general: In qPCR the cycle at which signal appears reflects the starting amount.)

Assay [2] relates to A. muciniphila. The assay can be described thus: qPCR of abundance of A. muciniphila in intestine of rhesus monkeys. The assay is classed as in vivo. As to conditions: macaque, p<0.05. An excerpt: (§1) FIGS. 7A-7H are a graph showing the effect of using D3 on rats and rhesus monkeys in Example 2 of the present invention. FIG. 7A is the schematic diagram of sampling time point in rats; FIG. 7B is the graph showing the results of the growth rate of body weight with different feeding treatments of the rat; FIG. 7C is the graph showing the results of the short-term feed intake measurement of the rat; FIG. 7D is the graph showing the results of the qPCR detection of the abundance of A. muciniphila in intestine of rats with different feeding treatment; FIG. 7E is a schematic diagram of the sampling time point in rhesus monkeys; FIG. 7F is the graph showing the results of the growth rate of body weight with different feeding treatments of rhesus monkeys; FIG. 7G is the feed intake monitoring graphs of rhesus monkeys with different feeding treatments; FIG. 7H is the graph showing the results of the qPCR detection of the abundance of A. muciniphila in intestine of rhesus monkeys with different feeding treatment. The data shown in the figure are mean±standard deviation, the number of repetitions is 5-10, and the significant difference of each group is analyzed by Wilcoxon test. * representing a significance analysis result of P<0.05, ** representing a significance analysis result of P<0.01.
Food intake (unit: g/only/week) and body weight were monitored weekly. […]

Assay [3] concerns UGN. The assay can be described thus: ELISA detection of serum UGN in rats. Type of assay: in vivo. As to conditions: P<0.05. How it is done: Serum preparation: mice were placed at room temperature for 2 hours or 4° C. overnight after eye vein blood collection, and centrifuged at 1000× g for 15 minutes at 2-8° C.; the supernatant can be taken for immediate detection; or subpackaged, and the specimens were stored at −20° C. or −80° C., but repeated freezing and thawing should be avoided. Thawed samples should be centrifuged again prior to detecting.
The serum sample diluent was diluted 1:200 times and then tested. The specific operation was as follows: 5 μl of the sample was added to 45 μl of the sample diluent (1:10 dilution) and mixed. Then 15 μl of the above diluent was added to the 285 μl sample diluent (1:20 dilution) and mixed. The sample obtained after the completion of the second step was 1:200 times dilution. The sample incubation, primary antibody, horseradish peroxidase labeled avidin working solution, color development, termination and enzyme labeling detection were carried out in turn.
(In general: An ELISA detects its analyte on a solid surface through an enzyme-linked reagent.)

The subject of assay [4] is A. muciniphila. The assay can be described thus: qPCR of abundance of A. muciniphila in intestine of rats. The assay is classed as in vivo, Sprague Dawley (SD) rats. As to conditions: figure d of FIG. 7 (rats), p<0.05.
Source text: as §1
Body weights were monitored weekly. […]

Assay [5] in a line: GF mice experiment (high-fat diet). The assay is classed as in vivo, Germ-free (GF) C57B1/6 mice. An excerpt:
To further determine the relative contribution of the microbiota to the anti-obesity effects of HD, D3 was chosen for GF mice experiment.
Germ-free (GF) C57B1/6 mice were used in the GF mice experiment, kept in a germ-free isolator, and their GF status was verified by fecal PCR every month. At the beginning of the experiment, germ-free (GF) C57B1/6 mice were 4 weeks old, each weighed 14±1 g. They were raised in a room with suitable temperature and humidity control, and the light/dark cycle was 12 hours, free diet and drinking water, and fed with standard laboratory feed (growth and reproduction feed, SPFSLFZ003, product of SPF (Beijing) Experimental Animal Technology Co., Ltd.), after one week of adaptation, they were randomly assigned to each cage, 4-6 mice per cage. A total of 3 treatments were set up, each with 1 cage, and each treatment was subjected to different feeding treatments, specifically as follows:
NC group (i.e. normal diet group): fed with standard laboratory feed (also known as growth and reproduction feed, SPFSLFZ003), free diet and drinking water for 8 weeks.
HFD group (i.e. high-fat diet group): fed with high-fat diet, the high-fat diet used was rodent feed (containing 60 kcal % fat, D12492), free diet and drinking water for 8 weeks.
D3 group (i.e. high-fat diet+D3 medicine intragastric administration group): fed with high-fat diet, free diet and drinking water. Intragastrically administrated with D3 medicine, 0.75 mg-3 mg/Kg body weight, 0.2 ml, once/day for 8 weeks.
Food intake and body weight were monitored weekly.
After the experiment on GF mice, the mice were killed by cervical dislocation. The heart, liver, spleen, lung, kidney, blood, ileum, cecum, and colon were harvested, immediately placed in liquid nitrogen, and stored at −80° C. for further analysis. Precisely dissected and subcutaneous and visceral fat deposits were weighed.

Assay [6] can be described thus: Short-term feed intake experiment of SPF rats. Type of assay: in vivo. As to conditions: after 8 weeks of treatment, p<0.05. An excerpt: A total of 2 treatments were set up, with 5 rats in each treatment, and each treatment was subjected to different feeding treatments, specifically as follows:
HFD group (i.e. high-fat diet group): 8 rats were fed with high-fat diet, the high-fat diet used was rodent feed (containing 60 kcal % fat, D12492), free diet and drinking water for 8 weeks.
D3 group (i.e. high-fat diet+D3 medicine intragastric administration group): 10 rats were fed with high-fat diet, free diet and drinking water. Intragastrically administrated with HD (choose D3), 0.5 mg-2 mg/Kg body weight, 0.5 ml, once/day for 8 weeks.
According to the above treatment, it was carried out for 8 weeks, and then within 1 week, the rats were starved for one day and then given feed, and the feed intake of the animals in the following day was recorded. That is, food weights were recorded every other day (4 separate measurements) and the average daily intake was determined for each 2-day period and calculated for each individual during the one-week measurement period. The obtained were the results of the short-term intake statistics (unit: g/only/day).

For RTRYCRTGR [D3], in assay [1], the “relative abundance of A. muciniphila in the intestinal flora by qPCR” value was “significantly increased”. Moreover, the “relative abundance of A. muciniphila in the intestine by qPCR” value in assay [2] and in assay [4] was “significantly increased” throughout. Also, the “level of Guca2b in rat serum” value in assay [3] was “significantly increased”. The “subcutaneous and visceral fat weight (inguinal subcutaneous, epididymis, perinephric) vs HFD group” value in assay [5] (8 weeks) is “significantly lower than that of the HFD group”. For the same sequence, in assay [5] (after 3-4 weeks), the “weekly feed intake vs control HFD group” value is given as “significant gap”. Further, the “body weight compared with the HFD group” value in assay [5] (intragastric 0.75 mg-3 mg/Kg once/day, 8 weeks) is reported as “decreased significantly”. For the same sequence, the “daily feed intake (short-term) vs HFD group” value in assay [6] is recorded as “significantly lower”.
